Reference: patent US20240360104A1, “TRANSCRIPTIONAL ENHANCED ASSOCIATED DOMAIN (TEAD) TRANSCRIPTION FACTOR INHIBITORS AND USES THEREOF” (Dana-Farber Cancer Institute, Inc., priority 2021, published 2024)
pIC50: −log10 of the molar value.

System: H2052 cells
Test: Antiproliferation assay using H2052 cells
Assay type: cell-based
Details: Homo sapiens, NCI-H2052; H2052 cells (FIG. 2)

Row | pIC50 | Compound
1 | 6.85 | C=CC(=O)N1C[C@@H](n2ccnn2)[C@H](OCc2ccc(C(F)(F)F)cc2)C1 [II-8]

System: NCI-H226 cells
Test: Antiproliferation assay on NCI-H226 cells (CellTiter-Glo, 5-day treatment)
Assay type: cell-based
Details: Homo sapiens, 120 h, 200 cells/well, 384 plate
Experimental: Example 1. Antiproliferation Assay on NCI-H226 Cells (200 Cells/Well, 384 Plate, 5-Day Treatment)
The compounds of the disclosure were tested for their ability in an antiproliferation assay using NCI-H226 cells (FIG. 6 and FIG. 7). The following table summarizes the IC50 values calculated from the graph of the percent inhibition versus the log of the concentration of representative compounds of the disclosure.
For 2D adherent cell viability experiment, the cells were seeded at 384-well plate (Corning, no. 3570) at the density of 200 cells/well (FIGS. 1-7). The next day, compounds were added using Janus workstation (PerkinElmer). After 5 days treatment, the cell viability was measured by CellTiter-Glo kit (Promega, no. G7570) as the manufacturer recommended.

Row | Compound | pIC50
2 | C=CC(=O)N1C[C@@H](Nc2ncccn2)[C@H](OCc2ccc(C(F)(F)F)cc2)C1 (relative stereo) [Compound I-1, 1-(trans-3-(pyrimidin-2-ylamino)-4-(4-(trifluoromethyl)benzyloxy)pyrrolidin-1-yl)prop-2-en-1-one] | 7.44
3 | C=CC(=O)N1C[C@@H](NS(=O)(=O)c2c(C)noc2C)[C@H](OCc2ccc(C(F)(F)F)cc2)C1 (relative stereo) [Compound V-5, N-(trans-1-acryloyl-4-(4-(trifluoromethyl)benzyloxy)pyrrolidin-3-yl)-3,5-dimethylisoxazole-4-sulfonamide] | 6.02
4 | C=CC(=O)N1C[C@@H](NS(=O)(=O)c2cccc(C#N)c2)[C@H](OCc2ccc(C(F)(F)F)cc2)C1 (relative stereo) [Compound V-6, N-(trans-1-acryloyl-4-(4-(trifluoromethyl)benzyloxy)pyrrolidin-3-yl)-3-cyanobenzenesulfonamide] | 6.27
5 | C=CC(=O)N1C[C@@H](n2cc(C(N)=O)nn2)[C@H](OCc2ccc(C(F)(F)F)cc2)C1 (relative stereo) [II-1, 1-(trans-1-acryloyl-4-(4-(trifluoromethyl)benzyloxy)pyrrolidin-3-yl)-1H-1,2,3-triazole-4-carboxamide] | 6.24
6 | C=CC(=O)N1C[C@@H](n2cc(C(=O)NC)nn2)[C@H](OCc2ccc(C(F)(F)F)cc2)C1 (relative stereo) [II-2, 1-(trans-1-acryloyl-4-(4-(trifluoromethyl)benzyloxy)pyrrolidin-3-yl)-N-methyl-1H-1,2,3-triazole-4-carboxamide] | 6.34
7 | C=CC(=O)N1C[C@@H](n2cc(-c3cncc(N)c3)nn2)[C@H](OCc2ccc(C(F)(F)F)cc2)C1 (relative stereo) [II-5, 1-(trans-3-(4-(5-aminopyridin-3-yl)-1H-1,2,3-triazol-1-yl)-4-(4-(trifluoromethyl)benzyloxy)pyrrolidin-1-yl)prop-2-en-1-one] | 6.76
8 | C=CC(=O)N1C[C@@H](n2cc(-c3ccc(N)nc3)nn2)[C@H](OCc2ccc(C(F)(F)F)cc2)C1 (relative stereo) [II-6, 1-(trans-3-(4-(6-aminopyridin-3-yl)-1H-1,2,3-triazol-1-yl)-4-(4-(trifluoromethyl)benzyloxy)pyrrolidin-1-yl)prop-2-en-1-one] | 6.95
9 | C=CC(=O)N1C[C@@H](n2cc(-c3cccc(C#N)c3)nn2)[C@H](OCc2ccc(C(F)(F)F)cc2)C1 (relative stereo) [II-7, 3-(1-(trans-1-acryloyl-4-(4-(trifluoromethyl)benzyloxy)pyrrolidin-3-yl)-1H-1,2,3-triazol-4-yl)benzonitrile] | 6.42
10 | C=CC(=O)N1C[C@@H](n2cc(C3CCN(C)CC3)nn2)[C@H](OCc2ccc(C(F)(F)F)cc2)C1 (relative stereo) [II-19, 1-(trans-3-(4-(1-methylpiperidin-4-yl)-1H-1,2,3-triazol-1-yl)-4-(4-(trifluoromethyl)benzyloxy)pyrrolidin-1-yl)prop-2-en-1-one] | 6.71
11 | C=CC(=O)N1C[C@@H](n2ccc(C(=O)NC)n2)[C@H](OCc2ccc(C(F)(F)F)cc2)C1 (relative stereo) [IV-5, 1-(trans-1-acryloyl-4-(4-(trifluoromethyl)benzyloxy)pyrrolidin-3-yl)-N-methyl-1H-pyrazole-3-carboxamide] | 6.31
12 | C=C(F)C(=O)N1C[C@@H](Nc2ncccn2)[C@H](OCc2ccc(C(F)(F)F)cc2)C1 [Compound I-9, 2-fluoro-1-((3R, 4R)-3-(pyrimidin-2-ylamino)-4-(4-(trifluoromethyl)benzyloxy)pyrrolidin-1-yl)prop-2-en-1-one] | 7.64
13 | C=CC(=O)N1C[C@@H](NS(=O)(=O)c2cccnc2)[C@H](OCc2ccc(C(F)(F)F)cc2)C1 [Compound V-1] | 6.42
14 | C=CC(=O)N1C[C@@H](n2ccnn2)[C@H](OCc2ccc(C(F)(F)F)cc2)C1 [II-8] | 7.11

Continued, values first:

Row | pIC50 | Compound
15 | 7.00 | C=CC(=O)N1C[C@@H](n2nc(-c3cnn(C)c3)ccc2=O)[C@H](OCc2ccc(C(F)(F)F)cc2)C1 (relative stereo) [VI-2, 2-(trans-1-acryloyl-4-(4-(trifluoromethyl)benzyloxy)pyrrolidin-3-yl)-6-(1-methyl-1H-pyrazol-4-yl)pyridazin-3(2H)-one]
16 | 7.39 | C=CC(=O)N1C[C@@H](n2ncc(-c3cnn(C)c3)cc2=O)[C@H](OCc2ccc(C(F)(F)F)cc2)C1 (relative stereo) [VI-3, 2-(trans-1-acryloyl-4-((4-(trifluoromethyl)benzyl)oxy)pyrrolidin-3-yl)-5-(1-methyl-1H-pyrazol-4-yl)pyridazin-3(2H)-one]
17 | 6.77 | C=CC(=O)N1C[C@@H](OCc2ccc(C(F)(F)F)cc2)[C@H](c2ccc(S(C)(=O)=O)cc2)C1 (relative stereo) [VII-1, 1-(trans-3-(4-(methylsulfonyl)phenyl)-4-(4-(trifluoromethyl)benzyloxy)pyrrolidin-1-yl)prop-2-en-1-one]
18 | 6.72 | C=CC(=O)N1C[C@@H](Nc2ccncn2)[C@H](OCc2ccc(C(F)(F)F)cc2)C1 (relative stereo) [VII-11, 1-(trans-3-(pyrimidin-4-ylamino)-4-(4-(trifluoromethyl)benzyloxy)pyrrolidin-1-yl)prop-2-en-1-one]
19 | 6.59 | C#Cc1ccc(CO[C@@H]2CN(C(=O)C=C)C[C@H]2n2cc(-c3cccnc3)nn2)cc1 [III-6, 1-((3R,4R)-3-(4-ethynylbenzyloxy)-4-(4-(pyridin-3-yl)-1H-1,2,3-triazol-1-yl)pyrrolidin-1-yl)prop-2-en-1-one]
20 | 6.59 | C=CC(=O)N1C[C@@H](OCc2ccc(C(F)(F)F)cc2)[C@H](c2cccc(S(C)(=O)=O)c2)C1 [VII-2]
